In brackets after ≈: the same amount, converted by molar mass. Read-outs that look alike come from different tables or passages of the source. Square brackets hold non-standard residues; d marks the D form. Ends that are not written are not given here. Peptide text beside a SMILES is read from it. * marks the point of attachment. Palmitoyl = CCCCCCCCCCCCCCCC(=O)*; Myristoyl = CCCCCCCCCCCCCC(=O)*; Dab = NCC[C@H](N)C(=O)O
Columns and labels:
E. coli ATCC 25922 = assay: CO-ADD MIC, broth microdilution (CLSI); type: cell-based, Escherichia coli; conditions: Mueller–Hinton broth, 5 × 10^5 CFU/mL, 18 h 37 °C, by CO-ADD
Description: (§1) They were defined as the lowest peptide
(§2) Further details of the screening

[1] = test system: Staphylococcus aureus ATCC 43300; conditions: MRSA; CLSI, Mueller–Hinton broth, 5 × 10^5 CFU/mL, 18 h 37 °C, by CO-ADD
[2] = test system: Cryptococcus neoformans ATCC 208821; assay: CO-ADD MIC, antifungal assay (CLSI); type: cell-based; conditions: Yeast Nitrogen Base broth, 24 h 35 °C, by CO-ADD
Procedure: (§3) Fungi strains were cultured for 3 days on Yeast Extract-Peptone Dextrose (YPD) agar at 30 °C. A yeast suspension of 1 × 10^6 to 5 × 10^6 cells/mL (as determined by OD530) was prepared from five colonies. These stock suspensions were diluted with Yeast Nitrogen Base (YNB) broth to a final concentration of 2.5 × 10^3 CFU/mL. […] Plates were covered and incubated at 35 °C for 24 h without shaking.

[3] = test system: Candida albicans ATCC 90028; assay: CO-ADD MIC, antifungal assay (CLSI); type: cell-based; conditions: Yeast Nitrogen Base broth, 24 h 35 °C, by CO-ADD
Procedure: as §3

[4] = test system: Klebsiella pneumonia ATCC 700603; conditions: MDR strain; CLSI, Mueller–Hinton broth, 5 × 10^5 CFU/mL, 18 h 37 °C, by CO-ADD
[5] = test system: Acinetobacter baumannii ATCC 19606; assay: CO-ADD MIC, broth microdilution (CLSI); type: cell-based; conditions: Mueller–Hinton broth, 5 × 10^5 CFU/mL, 18 h 37 °C, by CO-ADD
Description: as §1, §2

[6] = test system: Pseudomonas aeruginosa ATCC 27853; assay: CO-ADD MIC, broth microdilution (CLSI); type: cell-based; conditions: Mueller–Hinton broth, 5 × 10^5 CFU/mL, 18 h 37 °C, by CO-ADD
Description: as §1, §2

S. aureus ATCC 6538 = conditions: CFU assay
P. aeruginosa ATCC 10145 = conditions: CFU assay, 10 mM NaP, pH 5.5, 0.25% glucose
[7] = 10 mM NaP, pH 5.5, 0.25% glucose

Compound | Minimal inhibitory concentration (MIC) (E. coli ATCC 25922) [mg/L] | Minimal inhibitory concentration (MIC) [1] [mg/L] | Minimal inhibitory concentration (MIC) [2] [mg/L] | Minimal inhibitory concentration (MIC) [3] [mg/L] | Minimal inhibitory concentration (MIC) [4] [mg/L] | Minimal inhibitory concentration (MIC) [5] [mg/L] | Minimal inhibitory concentration (MIC) [6] [mg/L] | LD90 (S. aureus ATCC 6538; [7]) [µg/mL] | LD90 (P. aeruginosa ATCC 10145) [µg/mL] | LD90 (S. aureus ATCC 6538; 10 mM NaP, pH 7.0, 0.25% glucose) [µg/mL] | LD99 (concentration of peptide which kills 99.0% of inoculum) (S. aureus ATCC 6538; [7]) [µg/mL] | LD90 (S. aureus ATCC 6538; 10 mM NaP, pH 7.3, 1% TSB) [µg/mL] | LD99 (concentration of peptide which kills 99.0% of inoculum) (S. aureus ATCC 6538; 10 mM NaP, pH 7.3, 1% TSB) [µg/mL] | LD90 (S. aureus ATCC 6538; value in molar units) [µM] | LD100 (S. aureus ATCC 6538; [7]) [µg/mL] | LD100 (S. aureus ATCC 6538; 10 mM NaP, pH 7.3, 1% TSB) [µg/mL] | LD100 (P. aeruginosa ATCC 10145) [µg/mL]
CCCCCCCCCCCCCCCC(=O)N[C@@H](CCCNC(=N)N)C(=O)NCC(=O)N[C@@H](CO)C(=O)N[C@@H](CCCNC(=N)N)C(=O)N[C@@H](CO)C(=O)NCC(=O)N[C@@H](CCC(N)=O)C(=O)N[C@@H](CO)C(=O)N[C@@H](CO)C(=O)N[C@@H](CCCNC(=N)N)C(=O)NCC(=O)N[C@@H](CCC(=O)O)C(=O)N[C@@H](CCCNC(=N)N)C(=O)N[C@@H](CCCNC(=N)N)C(=O)O [Pal-HR-1-11-2H2R-14] (Palmitoyl-RGSRSGQSSRGERR-OH) | 8 (≈ 4.41 µM) | 8 (≈ 4.41 µM) | 8 (≈ 4.41 µM) | >32 | >32 | 4 (≈ 2.2 µM) | >32 | – | – | – | – | – | – | – | – | – | –
CCCCCCCCCCCCCCCC(=O)NCC(=O)N[C@@H](CCN)C(=O)NCC(=O)N[C@@H](CCN)C(=O)O [Pal-G-Dab4] (Palmitoyl-G[Dab]G[Dab]-OH) | >32 | 32 (≈ 56.1 µM) | 16 (≈ 28 µM) | >32 | >32 | 32 (≈ 56.1 µM) | >32 | 4.7 | – | – | – | – | – | – | – | – | –
HAHSGHGQSTQRGSRTAGR [FLG-22082-2100] | >32 | >32 | >32 | >32 | >32 | >32 | >32 | – | 0.038 | – | – | – | – | – | – | – | –
CCCCCCCCCCCCCCCC(=O)N[C@@H](Cc1c[nH]cn1)C(=O)NCC(=O)N[C@@H](CO)C(=O)N[C@@H](CCCNC(=N)N)C(=O)N[C@@H](CO)C(=O)NCC(=O)N[C@@H](CCC(N)=O)C(=O)N[C@@H](CO)C(=O)N[C@@H](CO)C(=O)N[C@@H](CCCNC(=N)N)C(=O)NCC(=O)N[C@@H](CCC(=O)O)C(=O)N[C@@H](CCCNC(=N)N)C(=O)N[C@@H](Cc1c[nH]cn1)C(=O)NCC(=O)N[C@@H](CO)C(=O)N[C@@H](CO)C(=O)N[C@@H](CO)C(=O)NCC(=O)N[C@@H](CO)C(=O)N[C@@H](CO)C(=O)N[C@@H](CO)C(=O)N[C@@H](Cc1c[nH]cn1)C(=O)O [Pal-HR 1-11] (Palmitoyl-HGSRSGQSSRGERHGSSSGSSSH-OH) | >32 | 32 (≈ 12.6 µM) | >32 | >32 | >32 | >32 | >32 | 2.35 | – | – | – | – | – | – | – | – | –
GRRGGRGGRGRGR [GR13] | >32 | >32 | >32 | >32 | >32 | >32 | >32 | 75 | – | 75 | – | – | – | – | – | – | –
CCCCCCCCCCCCCCCC(=O)NCC(=O)N[C@@H](CCCNC(=N)N)C(=O)N[C@@H](CCCNC(=N)N)C(=O)NCC(=O)N[C@@H](CO)C(=O)NCC(=O)N[C@@H](CC(C)C)C(=O)NCC(=O)N[C@@H](CCCNC(=N)N)C(=O)N[C@@H](CO)C(=O)N[C@@H](CO)C(=O)N[C@@H](CO)C(=O)N[C@@H](CCCNC(=N)N)C(=O)O [Pal-HR 1-18-3H3R-GR13] (Palmitoyl-GRRGSGLGRSSSR-OH) | >32 | 16 (≈ 10.2 µM) | 16 (≈ 10.2 µM) | >32 | >32 | 16 (≈ 10.2 µM) | >32 | 2.35 | – | – | – | – | – | – | – | – | –
CCCCCCCCCCCCCCCC(=O)NCC(=O)N[C@@H](CCCNC(=N)N)C(=O)N[C@@H](CCCNC(=N)N)C(=O)NCC(=O)NCC(=O)N[C@@H](CCCNC(=N)N)C(=O)O [Pal-GR6] (Palmitoyl-GRRGGR-OH) | >32 | 16 (≈ 17.9 µM) | 16 (≈ 17.9 µM) | >32 | >32 | >32 | >32 | 2.35 | – | – | 4.7 | – | – | – | – | – | –
CCCCCCCCCCCCCCCC(=O)NCC(=O)N[C@@H](CCCNC(=N)N)C(=O)N[C@@H](CCCNC(=N)N)C(=O)NCC(=O)NCC(=O)N[C@@H](CCCNC(=N)N)C(=O)NCC(=O)NCC(=O)N[C@@H](CCCNC(=N)N)C(=O)NCC(=O)N[C@@H](CCCNC(=N)N)C(=O)O [Pal-GR11] (Palmitoyl-GRRGGRGGRGR-OH) | 8 (≈ 5.8 µM) | 4 (≈ 2.9 µM) | 4 (≈ 2.9 µM) | 4 (≈ 2.9 µM) | >32 | 8 (≈ 5.8 µM) | 16 (≈ 11.6 µM) | – | – | – | – | 0.3 | 1.18 | – | – | – | –
CCCCCCCCCCCCCCCC(=O)NCC(=O)N[C@@H](CCCNC(=N)N)C(=O)N[C@@H](CCCNC(=N)N)C(=O)NCC(=O)NCC(=O)N[C@@H](CCCNC(=N)N)C(=O)NCC(=O)NCC(=O)N[C@@H](CCCNC(=N)N)C(=O)O [Pal-GR9] (Palmitoyl-GRRGGRGGR-OH) | >32 | 8 (≈ 6.86 µM) | >32 | >32 | >32 | >32 | >32 | 1.18 | – | – | 4.7 | – | – | – | – | – | –
CCCCCCCCCCCCCCCC(=O)NCC(=O)N[C@@H](CCCNC(=N)N)C(=O)NCC(=O)N[C@@H](CCCNC(=N)N)C(=O)O [Pal-GR4] (Palmitoyl-GRGR-OH) | >32 | 8 (≈ 11.7 µM) | 8 (≈ 11.7 µM) | 8 (≈ 11.7 µM) | >32 | >32 | >32 | 2.35 | – | – | 4.7 | – | – | 3.4 | – | – | –
CCCCCCCCCCCCCCCC(=O)N[C@@H](CO)C(=O)N[C@@H](Cc1c[nH]cn1)C(=O)N[C@@H](Cc1c[nH]cn1)C(=O)N[C@@H](CCCNC(=N)N)C(=O)N[C@@H](Cc1c[nH]cn1)C(=O)N[C@@H](Cc1ccccc1)C(=O)N[C@@H](CCCNC(=N)N)C(=O)N[C@@H](CO)C(=O)N[C@@H](Cc1c[nH]cn1)C(=O)N[C@@H](CCC(N)=O)C(=O)N[C@@H](CS)C(=O)N[C@@H](CCCNC(=N)N)C(=O)N[C@@H](CCCNC(=N)N)C(=O)O [Pal-LCE-3C55-67] (Palmitoyl-SHHRHFRSHQCRR-OH) | >32 | 32 (≈ 16.1 µM) | 1 (≈ 0.504 µM) | 16 (≈ 8.07 µM) | >32 | >32 | >32 | – | – | – | – | – | – | – | – | – | –
CCCCCCCCCCCCCC(=O)NCC(=O)N[C@@H](CCCNC(=N)N)C(=O)N[C@@H](Cc1c[nH]cn1)C(=O)NCC(=O)N[C@@H](CO)C(=O)NCC(=O)N[C@@H](CC(C)C)C(=O)NCC(=O)N[C@@H](Cc1c[nH]cn1)C(=O)N[C@@H](CO)C(=O)N[C@@H](CO)C(=O)N[C@@H](CO)C(=O)N[C@@H](Cc1c[nH]cn1)C(=O)NCC(=O)N[C@@H](CCC(N)=O)C(=O)N[C@@H](Cc1c[nH]cn1)C(=O)NCC(=O)N[C@@H](CO)C(=O)NCC(=O)N[C@@H](CO)C(=O)NCC(=O)N[C@@H](CCCNC(=N)N)C(=O)O [Myr-HR 1-18] (Myristoyl-GRHGSGLGHSSSHGQHGSGSGR-OH; C-terminus assumed) | – | – | – | – | – | – | – | 9.38 | 0.075 | – | – | 18.75 | – | – | 75 | 75 | 0.3
CCCCCCCCCCCCCCCC(=O)NCC(=O)N[C@H](CCCNC(=N)N)C(=O)N[C@H](CCCNC(=N)N)C(=O)NCC(=O)NCC(=O)N[C@H](CCCNC(=N)N)C(=O)NCC(=O)NCC(=O)N[C@H](CCCNC(=N)N)C(=O)O [(D)-Pal-GR9] (Palmitoyl-G[dR][dR]GG[dR]GG[dR]-OH; C-terminus assumed) | – | – | – | – | – | – | – | 0.15 | 0.038 | – | – | – | – | – | 2.35 | – | 0.59

Reference: paper PMC6399351, “Cationic Intrinsically Disordered Antimicrobial Peptides (CIDAMPs) Represent a New Paradigm of Innate Defense with a Potential for Novel Anti-Infectives” (Scientific Reports, 2019)
